This is an account of results in patent publication US9096591B2, “Tetracyclic compounds” (Medivation Technologies, Inc., priority 2007, dated 2015).

Experiment [1] addresses T1, human recombinant adrenergic α1D receptor (Homo sapiens, UniProt P25100).
T1 construct: expressed in transfected cells; host or cells: HEK-293 cells
T1 sequence (P25100 1-572): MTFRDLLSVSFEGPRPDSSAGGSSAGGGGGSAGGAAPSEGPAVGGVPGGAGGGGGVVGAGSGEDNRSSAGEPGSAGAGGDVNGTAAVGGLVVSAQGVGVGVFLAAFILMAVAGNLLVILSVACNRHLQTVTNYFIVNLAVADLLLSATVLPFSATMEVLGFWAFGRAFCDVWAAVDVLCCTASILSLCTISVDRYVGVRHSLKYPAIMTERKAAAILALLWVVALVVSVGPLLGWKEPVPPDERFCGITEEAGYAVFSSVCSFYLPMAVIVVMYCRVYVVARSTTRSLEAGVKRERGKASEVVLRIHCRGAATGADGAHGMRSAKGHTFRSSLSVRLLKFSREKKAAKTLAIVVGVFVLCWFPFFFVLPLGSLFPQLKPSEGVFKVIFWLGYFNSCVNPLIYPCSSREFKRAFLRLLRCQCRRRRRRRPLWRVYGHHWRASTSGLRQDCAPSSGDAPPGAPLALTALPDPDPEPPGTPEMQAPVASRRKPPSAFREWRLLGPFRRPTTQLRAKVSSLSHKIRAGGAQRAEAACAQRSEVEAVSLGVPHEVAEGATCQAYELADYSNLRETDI
In words: Adrenergic α1D radioligand binding ([3H]Prozosin). Also on record: Inhibition of ligand binding, Adren. alpha1D: concentration or dose not given beside the values. The following applies: percent inhibition of specific binding. How it is done: Compounds of invention were incubated with 0.6 nM [^3H]Prozosin for 60 minutes at 25° C. Non-specific binding was estimated in the presence of 10 μM phentolamine. Receptor proteins were filtered and washed, the filters were then counted to determine [^3H]Prozosin specifically bound. […] Biochemical assay results are presented as the percent inhibition of specific binding in Table 6.

Experiment [2] concerns the target T2, human recombinant histamine H2 receptor (Homo sapiens, UniProt P25021).
T2 construct: expressed in transfected cells; host or cells: CHO-K1 cells
Nature of the experiment: Histamine H2 radioligand binding ([125I]Aminopotentidine). The following applies: read-out: Inhibition of ligand binding, Hist. H2. In a few lines: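 Test compounds were assessed for their ability to displace radioligand from the human recombinant histamine H2 receptor. Non-specific binding was determined in the presence of 3 μM Tiotidine, and results were expressed as percent inhibition of specific binding, with 1% DMSO serving as the vehicle.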

Experiment [3] addresses T3, human recombinant adrenergic α2B receptor (Homo sapiens, UniProt P18089).
T3 construct: expressed in transfected cells; host or cells: CHO-K1 cells
T3 sequence (P18089 1-450): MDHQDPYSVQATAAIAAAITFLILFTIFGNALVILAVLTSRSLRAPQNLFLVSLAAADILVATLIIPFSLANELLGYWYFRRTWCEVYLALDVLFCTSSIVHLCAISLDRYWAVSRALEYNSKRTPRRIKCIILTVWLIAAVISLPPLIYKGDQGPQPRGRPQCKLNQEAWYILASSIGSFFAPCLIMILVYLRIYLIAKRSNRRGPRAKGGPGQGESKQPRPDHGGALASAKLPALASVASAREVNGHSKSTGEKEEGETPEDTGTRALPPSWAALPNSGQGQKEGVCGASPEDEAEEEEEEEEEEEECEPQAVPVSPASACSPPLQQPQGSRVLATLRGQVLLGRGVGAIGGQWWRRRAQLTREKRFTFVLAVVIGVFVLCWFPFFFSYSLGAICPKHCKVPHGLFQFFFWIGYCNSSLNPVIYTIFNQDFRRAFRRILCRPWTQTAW
In words: Adrenergic α2B radioligand binding ([3H]Rauwolscine). Also on record: Inhibition of ligand binding, Adren. alpha2B: concentration or dose not given beside the values. The following applies: percent inhibition of specific binding. A digest of the protocol:
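Membranes from CHO-K1 cells expressing the receptor, in 50 mM Tris-HCl pH 7.4 with 12.5 mM MgCl2, 1 mM EDTA, 0.2% BSA, incubated with compounds and 2.5 nM [3H]Rauwolscine for 60 minutes at 25 °C.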

Experiment [4] concerns the target T4, human recombinant dopamine D2L receptor (Homo sapiens, UniProt P14416).
T4 construct: expressed in transfected cells; host or cells: CHO cells
Nature of the experiment: Dopamine D2L radioligand binding ([3H]Spiperone). The following applies: percent inhibition of specific binding. How it is done:
Non-specific binding was estimated in the presence of 10 μM Haloperidol. Receptor proteins were filtered and washed, the filters were then counted to determine [^3H]Spiperone specifically bound. […] Biochemical assay results are presented as the percent inhibition of specific binding in Table 6.

Experiment [5] concerns the target T5, human recombinant histamine H1 receptor (Homo sapiens, UniProt P35367).
T5 construct: expressed in transfected cells; host or cells: CHO cells
Nature of the experiment: Histamine H1 radioligand binding ([3H]Pyrilamine). The following applies: read-out: Inhibition of ligand binding, Hist. H1. In a few lines: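 Receptor expressed in CHO cells, assayed in 50 mM Tris-HCl pH 7.4 with 2 mM MgCl2, 100 mM NaCl, 250 mM sucrose. Compounds tested at 1 μM in 1% DMSO; non-specific binding set with 1 μM pyrilamine. Filter-bound radioactivity counted; values are percent inhibition of specific binding.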

Experiment [6] addresses T6, human recombinant serotonin (5-Hydroxytryptamine) 5-HT2A receptor (Homo sapiens, UniProt P28223).
T6 construct: expressed in transfected cells; host or cells: CHO-K1 cells
Nature of the experiment: Serotonin 5-HT2A radioligand binding ([3H]Ketanserin). The following applies: percent inhibition of specific binding. The protocol: Compounds of the invention were incubated with 0.5 nM [^3H]Ketanserin for 60 minutes at 25° C. Non-specific binding was estimated in the presence of 1 μM Mianserin. Receptor proteins were filtered and washed, the filters were then counted to determine [^3H]Ketanserin specifically bound. […] Biochemical assay results are presented as the percent inhibition of specific binding in Table 6.

Setting [7] is: percent inhibition of specific binding, screened at 1 μM.

Like-named read-outs stand apart in the source and are kept apart here.

T6 sequence (P28223 whole entry): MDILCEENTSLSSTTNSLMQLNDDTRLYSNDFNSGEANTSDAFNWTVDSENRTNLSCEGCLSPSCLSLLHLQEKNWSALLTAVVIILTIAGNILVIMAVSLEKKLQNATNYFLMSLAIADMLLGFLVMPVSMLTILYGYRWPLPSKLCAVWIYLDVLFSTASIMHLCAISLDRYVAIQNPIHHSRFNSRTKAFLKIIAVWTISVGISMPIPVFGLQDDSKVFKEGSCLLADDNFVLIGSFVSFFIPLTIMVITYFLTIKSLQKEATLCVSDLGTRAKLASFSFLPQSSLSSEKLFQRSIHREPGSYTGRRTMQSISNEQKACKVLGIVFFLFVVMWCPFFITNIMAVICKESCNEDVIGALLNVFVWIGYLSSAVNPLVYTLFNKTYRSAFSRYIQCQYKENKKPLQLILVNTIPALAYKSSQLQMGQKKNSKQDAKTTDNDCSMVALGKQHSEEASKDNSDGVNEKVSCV
T5 sequence (P35367 whole entry): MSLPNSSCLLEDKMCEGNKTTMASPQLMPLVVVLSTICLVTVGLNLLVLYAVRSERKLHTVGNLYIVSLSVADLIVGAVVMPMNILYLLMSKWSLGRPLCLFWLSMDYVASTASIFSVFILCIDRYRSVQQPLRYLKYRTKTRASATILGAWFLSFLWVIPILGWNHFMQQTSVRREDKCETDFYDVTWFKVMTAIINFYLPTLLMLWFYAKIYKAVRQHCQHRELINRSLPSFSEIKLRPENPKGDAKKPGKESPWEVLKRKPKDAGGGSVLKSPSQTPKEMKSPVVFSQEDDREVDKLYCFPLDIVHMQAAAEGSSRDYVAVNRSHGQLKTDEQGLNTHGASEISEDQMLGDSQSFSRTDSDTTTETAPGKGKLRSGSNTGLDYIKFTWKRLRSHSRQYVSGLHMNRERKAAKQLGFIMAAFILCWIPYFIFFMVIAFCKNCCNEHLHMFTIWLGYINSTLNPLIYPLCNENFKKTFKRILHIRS
T2 sequence (P25021 whole entry): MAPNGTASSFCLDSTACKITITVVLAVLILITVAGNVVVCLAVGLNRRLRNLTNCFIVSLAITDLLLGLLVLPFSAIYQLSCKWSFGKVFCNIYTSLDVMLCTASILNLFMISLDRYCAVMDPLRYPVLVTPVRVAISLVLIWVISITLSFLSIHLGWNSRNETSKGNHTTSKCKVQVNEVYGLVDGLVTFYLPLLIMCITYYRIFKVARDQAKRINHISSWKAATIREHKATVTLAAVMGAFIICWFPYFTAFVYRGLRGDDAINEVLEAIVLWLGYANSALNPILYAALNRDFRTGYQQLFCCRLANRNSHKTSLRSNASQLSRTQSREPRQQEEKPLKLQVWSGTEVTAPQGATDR
T4 sequence (P14416 whole entry): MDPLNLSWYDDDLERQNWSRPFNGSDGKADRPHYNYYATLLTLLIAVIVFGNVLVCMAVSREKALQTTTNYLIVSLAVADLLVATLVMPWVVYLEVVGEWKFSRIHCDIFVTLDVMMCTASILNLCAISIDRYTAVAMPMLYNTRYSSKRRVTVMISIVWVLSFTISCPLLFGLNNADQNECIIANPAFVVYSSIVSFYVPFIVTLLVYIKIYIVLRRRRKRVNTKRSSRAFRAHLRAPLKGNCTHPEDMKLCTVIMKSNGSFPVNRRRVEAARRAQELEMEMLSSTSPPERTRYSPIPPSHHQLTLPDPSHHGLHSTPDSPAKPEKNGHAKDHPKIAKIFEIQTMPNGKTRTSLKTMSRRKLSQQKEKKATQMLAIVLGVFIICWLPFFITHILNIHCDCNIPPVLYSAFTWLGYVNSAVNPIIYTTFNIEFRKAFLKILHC

As usually defined, the inhibition is the drop in the measured response relative to a control, in per cent. As to `Cc1ccc2c(c1)c1c(n2CCc2cncc(Cl)c2)CCN(C)C1` [Compound 443, 5-(2-(5-chloropyridin-3-yl)ethyl)-2,3,4,5-tetrahydro-2,8-dimethyl-1H-pyrido[4,3-b]indole], the “Inhibition of ligand binding, Adren. alpha1D” value (“Inhibition … Adren. alpha1D” for short) in experiment [1] worked out at 91%. The figures for the inhibition at 1 µM in experiment [2] (setting [7]) and in experiment [5] (setting [7]) were 94% and 102%, respectively. Moreover, the “Inhibition of ligand binding, Adren. alpha2B” value (“Inhibition … Adren. alpha2B” below) in experiment [3] was 117%. Further, in experiment [4], the “Inhibition of ligand binding, Dop. D2L” value turned out to be 29%. The “Inhibition of ligand binding, Ser. 5-HT2A” value (shortened to “Inhibition … Ser. 5-HT2A”) in experiment [6] came out at 94%.

With `CCCc1ccc(CCn2c3c(c4cc(Cl)ccc42)CN(C)CC3)cn1` [Compound 476, 8-chloro-2,3,4,5-tetrahydro-2-methyl-5-(2-(6-propylpyridin-3-yl)ethyl)-1H-pyrido[4,3-b]indole], the “Inhibition … Adren. alpha1D” value in experiment [1] was 95%. Moreover, the figures for the inhibition at 1 µM in experiment [2] (setting [7]) and in experiment [5] (setting [7]) were 96% and 98%, respectively. Further, the “Inhibition … Adren. alpha2B” value in experiment [3] amounted to 97%. The “Inhibition of ligand binding, Dop. D2L” value in experiment [4] was 30%. For the same compound, the “Inhibition … Ser. 5-HT2A” value in experiment [6] worked out at 100%.

As to `CN1CCN(CCn2c3c(c4cc(Cl)ccc42)CN(C)CC3)CC1` [Compound 417, 8-chloro-2,3,4,5-tetrahydro-2-methyl-5-(2-(4-methylpiperazin-1-yl)ethyl)-1H-pyrido[4,3-b]indole], the “Inhibition … Adren. alpha1D” value in experiment [1] is listed as 1%. Also, the inhibition at 1 µM in experiment [2] (setting [7]) was determined as 19%; in experiment [5] (setting [7]), 10%. Also, the “Inhibition … Adren. alpha2B” value in experiment [3] is reported as −1%. In addition, in experiment [4], the “Inhibition of ligand binding, Dop. D2L” value was −12%. For the same compound, in experiment [6], the “Inhibition … Ser. 5-HT2A” value amounted to 23%.

In the case of `CCc1ccc2c(c1)c1c(n2CCc2cnc(C)cn2)CCN(C)C1` [Compound 364, 8-Ethyl-2-methyl-5-[2-(5-methyl-pyrazin-2-yl)-ethyl]-2,3,4,5-tetrahydro-1H-pyrido[4,3-b]indole], the “Inhibition … Adren. alpha1D” value in experiment [1] stood at 77%. In addition, the values for the inhibition at 1 µM in experiment [2] (setting [7]) and in experiment [5] (setting [7]) were 13% and 87%, respectively. The “Inhibition … Adren. alpha2B” value in experiment [3] is 109%. For the same compound, the “Inhibition of ligand binding, Dop. D2L” value in experiment [4] is on record as 29%. For the same compound, the “Inhibition … Ser. 5-HT2A” value in experiment [6] is recorded as 59%.

With `Cc1ccc2c(c1)c1c(n2CC(=O)N2CCN(C)CC2)CCN(C)C1` [Compound 459, 2-(1,2,3,4-tetrahydro-2,8-dimethylpyrido[4,3-b]indol-5-yl)-1-(4-methylpiperazin-1-yl)ethanone], the “Inhibition … Adren. alpha1D” value in experiment [1] is recorded as 0%. Moreover, the inhibition at 1 µM in experiment [2] (setting [7]) is -4%; in experiment [5] (setting [7]) it was 0%. For the same compound, the “Inhibition … Adren. alpha2B” value in experiment [3] is recorded as −20%. The “Inhibition of ligand binding, Dop. D2L” value in experiment [4] was −7%. In addition, the “Inhibition … Ser. 5-HT2A” value in experiment [6] turned out to be 1%.

`Cc1ccc(CCn2c3c(c4cc(Cl)ccc42)CN(C)CC3)cn1` [Compound 225, 8-chloro-2,3,4,5-tetrahydro-2-methyl-5-(2-(6-methylpyridin-3-yl)ethyl)-1H-pyrido[4,3-b]indole]: in experiment [1], the “Inhibition … Adren. alpha1D” value is on record as 86%. For the same compound, the inhibition at 1 µM in experiment [2] was found to be 72%; in experiment [5], 101%. Also, the “Inhibition … Adren. alpha2B” value in experiment [3] was found to be 107%. In addition, the “Inhibition of ligand binding, Dop. D2L” value in experiment [4] stood at 32%. The “Inhibition … Ser. 5-HT2A” value in experiment [6] was determined as 92%.

For the compound `Cc1ccc2c(n1)c1c(n2CCc2ccc(C(F)(F)F)nc2)CCN(C)C1` [Compound 353, 9-aza-2,8-dimethyl-5-(2-(6-(trifluoromethyl)pyridin-3-yl)ethyl)-2,3,4,5-tetrahydro-1H-pyrido[4,3-b]indole], the “Inhibition … Adren. alpha1D” value in experiment [1] amounted to 11%. For the same compound, the inhibition at 1 µM is -2% in experiment [2] (setting [7]) and 10% in experiment [5] (setting [7]). Further, in experiment [3], the “Inhibition … Adren. alpha2B” value was found to be 11%. Further, in experiment [4], the “Inhibition of ligand binding, Dop. D2L” value is given as 5%. Also, the “Inhibition … Ser. 5-HT2A” value in experiment [6] is recorded as −1%.

As to `Cc1cnc(CCn2c3c(c4cc(C(C)C)ccc42)CN(C)CC3)cn1` [Compound 369, 8-Isopropyl-2-methyl-5-[2-(5-methyl-pyrazin-2-yl)-ethyl]-2,3,4,5-tetrahydro-1H-pyrido[4,3-b]indole], the “Inhibition … Adren. alpha1D” value in experiment [1] turned out to be 51%. The inhibition at 1 µM in experiment [2] (setting [7]) is 6%; in experiment [5] (setting [7]), 39%. Further, the “Inhibition … Adren. alpha2B” value in experiment [3] is 105%. In addition, in experiment [4], the “Inhibition of ligand binding, Dop. D2L” value is given as 1%. The “Inhibition … Ser. 5-HT2A” value in experiment [6] worked out at 10%.

As to `CN1CCc2c(c3cc(Cl)cc(F)c3n2CCc2ccc(C(F)(F)F)nc2)C1` [Compound 338, 8-chloro-6-fluoro-5-(2-(6-(trifluoromethyl)pyridin-3-yl)ethyl)-2,3,4,5-tetrahydro-2-methyl-1H-pyrido[4,3-b]indole], in experiment [1], the “Inhibition … Adren. alpha1D” value came out at 83%. The inhibition at 1 µM came to 78% in experiment [2] (setting [7]) and 96% in experiment [5] (setting [7]). Further, in experiment [3], the “Inhibition … Adren. alpha2B” value was determined as 104%. The “Inhibition of ligand binding, Dop. D2L” value in experiment [4] was determined as 22%. The “Inhibition … Ser. 5-HT2A” value in experiment [6] is recorded as 94%.

In the case of `Cc1ccc2c(c1)c1c(n2CCc2ccc(C(F)(F)F)nc2)CCN(C)C1` [Compound 68], the “Inhibition … Adren. alpha1D” value in experiment [1] came out at 98%. Besides, the figures for the inhibition at 1 µM in experiment [2] (setting [7]) and in experiment [5] (setting [7]) were 49% and 99%, respectively. For the same compound, the “Inhibition … Adren. alpha2B” value in experiment [3] is on record as 111%. Besides, the “Inhibition of ligand binding, Dop. D2L” value in experiment [4] amounted to 29%. For the same compound, the “Inhibition … Ser. 5-HT2A” value in experiment [6] is listed as 98%.

`Cc1ccc2c(c1)c1c(n2CC(=O)N2CCCC(C)C2)CCN(C)C1` (stereo not drawn) [Compound 401, 2-(1,2,3,4-tetrahydro-2,8-dimethylpyrido[4,3-b]indol-5-yl)-1-(3-methylpiperidin-1-yl)ethanone]: the “Inhibition … Adren. alpha1D” value in experiment [1] turned out to be 1%. Moreover, the inhibition at 1 µM in experiment [2] (setting [7]) is 14%; in experiment [5] (setting [7]), 36%. The “Inhibition … Adren. alpha2B” value in experiment [3] is given as 3%. Further, the “Inhibition of ligand binding, Dop. D2L” value in experiment [4] was −12%. Moreover, the “Inhibition … Ser. 5-HT2A” value in experiment [6] worked out at 17%.

For `Cc1ccc(CCn2c3c(c4cc(C(C)C)ccc42)CN(C)CC3)cn1` [Compound 392, 8-Isopropyl-2-methyl-5-[2-(6-methyl-pyridin-3-yl)-ethyl]-2,3,4,5-tetrahydro-1H-pyrido[4,3-b]indole], in experiment [1], the “Inhibition … Adren. alpha1D” value was found to be 88%. Further, the inhibition at 1 µM was found to be 58% in experiment [2] (setting [7]) and 98% in experiment [5] (setting [7]). Also, the “Inhibition … Adren. alpha2B” value in experiment [3] is 109%. In addition, in experiment [4], the “Inhibition of ligand binding, Dop. D2L” value is 24%. Also, the “Inhibition … Ser. 5-HT2A” value in experiment [6] is 53%.
